According to US4933368A, “N-phenylbenzamide derivatives” (Godecke Aktiengesellschaft, priority 1983, dated 1990):
Entries after “also recorded” stand apart in the source; their conditions may differ.

Assays:
Pentetrazole-convulsion = Pentetrazole-convulsion model; format: in vivo; details: Mus musculus, po; i.g., mice
Lewis Lung Tumor = experiment: Lewis Lung Tumor, growth retardation in mice; format: in vivo, BCBA mice; details: for Surviving Animals: n = 5
Protocol: Preparation: As suspension freshly prepared
before each administration
Route of Oral, suspended in 0.8%
administration: Methocel
Volume: 0.01 per gram body weight
daily for 9 days, if not
Lewis Lung Tumor in BCBA mice. The procedure is the same as with osteosarcoma. The volume of the tumor was determined here at 800 mm^3 (=product of the diameters in three dimensions).

[1] = test system: MNU-induced rat mammary tumor; experiment: MNU-induced mammary tumor (CCTR); format: in vivo; details: for % T/C / Rating: PO, 4 times daily, Days 1-5 for 5 weeks
From the text: (§1) Doses just under the acutely lethal dose can be given indefinitely (for more than 30 days), during which the treated animals regain their initial weight loss.

[2] = test system: Mammary adenocarcinoma 25; experiment: Mammary adenocarcinoma 25 (CCTM test); format: in vivo, mice
Protocol: The CCTM assay assesses the antitumor activity of a test agent by measurement of the treatment-induced delay of tumor growth. Tumor growth delay is used because, unlike T/C type assays, the measured parameter is independent of time.
Test animals are Fl hybrid mice derived from the inbred strain of tumor origin. After the required mice are randomized, they receive SC implants of either trocar fragments (30-50 mg) or appropriate dilutions of tumor brei on Day 0. Samples for each donor tumor or from the final brei are incubated in thioglycolate media as a check for gross contamination of the tumor material. After tumor inoculation, the test mice are rerandomized and distributed to test group as per the specific test protocol.
Survival is checked daily for each test group. Both the number dead and the number living are counted and recorded. All dead mice are autopsied to ascertain the probable cause of death (drug or tumor). Clinical signs are observed and recorded for all test groups. Individual body weights are recorded at least weekly as directed in the specific test protocol. Each tumor is measured with calipers as per the protocol (usually two to three times/week).
Any surviving animal with a tumor that is larger than the smallest lethal control tumor for two successive measurements will be sacrificed unless:
This time may be calculated as:
Td=tumor volume doubling time (days), calculated from the slope of a long-linear least squares fit of the growth curve between 63 and 1000 mg for each control tumor. The mean value for the control group is used for all other calculations that require Td.
T,C=median time in days for the tumor in a given group to reach a predetermined evaluation size (usually 750 mg). T=treated groups/C=control group. These values are calculated by log/linear interpolation between the nearest tumor measurements on either side of the evaluation size.
T-C=tumor growth delay in days (treatment minus control).
Gross Log Kill=total number of logs of tumor cell kill produced by the given treatment regimen.
Gross Kill=(T-C)/3.32*Td)
Net Log Kill=the difference in logs between the tumor burden after the last treatment and the initial pretreatment burden. Net kill reflects the effectiveness of the overall therapy accounting for the growth of the tumor between individual treatments of the therapeutic regimen. Net kill allows valid comparisons of different treatment regimens, i.e., those with different durations of treatment that allow different amounts of tumor growth during therapy.
Net Kill=[(T-C)-DRx]/(3.32*Td)
All tumor-free survivors (cures) are excluded from the calculation of T-C and cell kill values. Thus, all calculated end points represent the response of the treatment failures.

[3] = test system: HCT-8 human colon xenograft; experiment: HCT-8 human colon xenograft in nude mice (CCTM test); format: in vivo
From the text: as §1
(§2) The two types of assays used were the standard CCTM test for solid tumors and the CCLS test for leukemia.
The CCTM assay assesses the antitumor activity of a test agent by measurement of the treatment-induced delay of tumor growth. Tumor growth delay is used because, unlike T/C type assays, the measured parameter is […].
Test animals are Fl hybrid mice derived from the inbred strain of tumor origin. […]
(§3) Test agents are dissolved or suspended in any of several vehicles and are administered by the routes and treatment schedules specified on the test protocol. All animals are monitored for signs of acute toxicity and side effects.
Survival is checked daily for each test group. Both the number dead and the number living are counted and recorded. […] Clinical signs are observed and recorded for all test groups. Individual body weights are recorded at least weekly as directed in the specific test protocol. Each tumor is measured with calipers as per the protocol (usually two to three times/week). […]
Td=tumor volume doubling time (days), calculated from the slope of a long-linear least squares fit of the growth curve between 63 and 1000 mg for each control tumor. […]

L5222 leukemia = L5222 leukemia (CCLS test); format: in vivo, mice; details: IP PO
From the text: as §2
The CCLS assay assesses the antitumor activity of a test agent by measurement of the treatment-induced increase in host lifespan. Only rapidly growing tumors that kill their respective hosts in less than 30 days are appropriate for life span assays.
Test animals are appropriate Fl hybrid mice derived for the inbred strain of tumor origin. After the required mice are randomized, they receive implants (IP, IV, IC, IM, or SC) of appropriately diluted ascites fluid or dilutions of tumor brei on Day 0. […]
as §3
Survival is checked daily for each test group. Both the number dead and the number living are counted and recorded. […] Clinical signs are observed and recorded for all test groups. Group body weights are recorded at least weekly as directed in the specific test protocol. […]
Td=tumor volume doubling time (days), calculated from the slope of a log-linear least square fit of the survival time vs inoculum curve for titrated inocula of tumor cells in untreated mice.
MLS=median life span, calculated by a method appropriate for grouped observations. […]

growing hair follicle = experiment: Antiproliferative activity upon topical administering to rats (hair growth); format: in vivo, Long Evans rats; details: 0.5% solution in absolute ethanol, 5-10 mg/animal daily
Protocol: No control standard known
Preparation: Fresh before each
Route of Topically by pipetting as
administration: 0.5% solution in absolute
Volume: 1 ml per animal and dose
Tested dose: 5 mg/animal daily for 14 days
10 mg/animal daily for 7 days
A protective collar is placed on male rats of the Long Evans strain, fur color "black-hooded." A rectangle measuring 3 cm long and 1.5 cm wide is marked with the aid of a template on the dorsal skin in the region of the black dorsal hair strip subsequent to shaving and cleansing. The test solution is slowly applied dropwise to this rectangle, so as to avoid it running off onto the surrounding skin. The solvent is applied in the same manner to the control animals. After 21 days of treatment the hair growth is assessed on the treated areas compared with the control areas.

Nc1ccc(C(=O)Nc2ccccc2N)cc1 [Substance A, 4-Amino-N-(2'-aminophenyl)-benzamide]
ED50 (Pentetrazole-convulsion): 44 mg/kg | Surviving Animals (Lewis Lung Tumor; 1 × 240 mg/kg PO): 5/5 | Retardation in Growth of Tumor (Days) (Lewis Lung Tumor; 1 × 240 mg/kg PO, p = 0,018): 3,1 Days | Retardation in Growth of Tumor (toxic death) (Lewis Lung Tumor; 2 × 180 mg/kg PO): toxic death | Surviving Animals (Lewis Lung Tumor; 2 × 180 mg/kg PO): 0/5 | Retardation in Growth of Tumor (toxic death) (Lewis Lung Tumor; 4 × 120 mg/kg PO): toxic death | Surviving Animals (Lewis Lung Tumor; 4 × 120 mg/kg PO): 0/5 | Surviving Animals (Lewis Lung Tumor; 9 × 60 mg/kg IP, controls 5/5): 5/5 | Retardation in Growth of Tumor (Days) (Lewis Lung Tumor; 9 × 60 mg/kg IP, p = 0,061): 3,8 Days | assessment of activity (Lewis Lung Tumor; mouse, in vivo): moderate activity | anticancer activity ([1]; MNU-induced rat mammary tumor): significant anticancer activity has been demonstrated and confirmed | % T/C ([1]; 7.5 mg/kg): 3.5% | Rating ([1]; 7.5 mg/kg): AA (≤10% T/C High Activity) | % T/C ([1]; 10 mg/kg): 7.8% | Rating ([1]; 10 mg/kg): AA (≤10% T/C High Activity) | % T/C ([2]; SC PO, Days 3-24, 50 mg/kg): 0% | cures ([2]; SC PO, Days 3-24, 50 mg/kg, 6 out of 10 cures): 6/10 | (T-C) tumor growth delay ([2]; SC PO, Days 25-36, 50 mg/kg): 16 days | Cell Kill Net ([2]; SC PO, Days 25-36, 50 mg/kg): 1.6 logs | anticancer activity ([2]; mammary 25): significant anticancer activity has been demonstrated and confirmed | anticancer activity ([3]; HCT-8 human colon tumor xenograft): significant anticancer activity has been demonstrated and confirmed | (T-C) tumor growth delay ([3]; SC PO, Days 9-24, 69 mg/kg): 13 days | % T/C (L5222 leukemia; Days 1, 4, 7, 48 mg/kg): 150% | % T/C (L5222 leukemia; Days 1-9, 15 mg/kg): 169% | inhibition of hair growth / topical antiproliferative action (growing hair follicle): clear inhibition of hair growth; also recorded: distinct antiproliferate action
